Measured values reported in patent US10196365B2, “Quinazoline derivative, preparation method therefor, and pharmaceutical composition and application thereof” (ARROMAX PHARMATECH CO., LTD., priority 2014, dated 2019).
Marks after values point to notes of the source that are not given here.

Tests used:
[1] = tested on: NCI H1975 (human non-small cell lung cancer cell lines); assay: Growth inhibition test in tumor cells (CCK8), NCI-H1975; format: cell-based; details: 72 h
[2] = tested on: A431 (human epithelial carcinoma cell lines); assay: Growth inhibition test in tumor cells (CCK8), A431; format: cell-based; details: A-431, 72 h
Her-2 enzyme = Her-2 enzyme (Homo sapiens (Human), UniProt P04626); assay: HTRF kinEASE TK in vitro kinase assay, Her-2; format: biochemical; details: 30 min enzyme reaction, read-out: IC50 against Her-2
Her-2 enzyme, sequence (P04626 23-1255): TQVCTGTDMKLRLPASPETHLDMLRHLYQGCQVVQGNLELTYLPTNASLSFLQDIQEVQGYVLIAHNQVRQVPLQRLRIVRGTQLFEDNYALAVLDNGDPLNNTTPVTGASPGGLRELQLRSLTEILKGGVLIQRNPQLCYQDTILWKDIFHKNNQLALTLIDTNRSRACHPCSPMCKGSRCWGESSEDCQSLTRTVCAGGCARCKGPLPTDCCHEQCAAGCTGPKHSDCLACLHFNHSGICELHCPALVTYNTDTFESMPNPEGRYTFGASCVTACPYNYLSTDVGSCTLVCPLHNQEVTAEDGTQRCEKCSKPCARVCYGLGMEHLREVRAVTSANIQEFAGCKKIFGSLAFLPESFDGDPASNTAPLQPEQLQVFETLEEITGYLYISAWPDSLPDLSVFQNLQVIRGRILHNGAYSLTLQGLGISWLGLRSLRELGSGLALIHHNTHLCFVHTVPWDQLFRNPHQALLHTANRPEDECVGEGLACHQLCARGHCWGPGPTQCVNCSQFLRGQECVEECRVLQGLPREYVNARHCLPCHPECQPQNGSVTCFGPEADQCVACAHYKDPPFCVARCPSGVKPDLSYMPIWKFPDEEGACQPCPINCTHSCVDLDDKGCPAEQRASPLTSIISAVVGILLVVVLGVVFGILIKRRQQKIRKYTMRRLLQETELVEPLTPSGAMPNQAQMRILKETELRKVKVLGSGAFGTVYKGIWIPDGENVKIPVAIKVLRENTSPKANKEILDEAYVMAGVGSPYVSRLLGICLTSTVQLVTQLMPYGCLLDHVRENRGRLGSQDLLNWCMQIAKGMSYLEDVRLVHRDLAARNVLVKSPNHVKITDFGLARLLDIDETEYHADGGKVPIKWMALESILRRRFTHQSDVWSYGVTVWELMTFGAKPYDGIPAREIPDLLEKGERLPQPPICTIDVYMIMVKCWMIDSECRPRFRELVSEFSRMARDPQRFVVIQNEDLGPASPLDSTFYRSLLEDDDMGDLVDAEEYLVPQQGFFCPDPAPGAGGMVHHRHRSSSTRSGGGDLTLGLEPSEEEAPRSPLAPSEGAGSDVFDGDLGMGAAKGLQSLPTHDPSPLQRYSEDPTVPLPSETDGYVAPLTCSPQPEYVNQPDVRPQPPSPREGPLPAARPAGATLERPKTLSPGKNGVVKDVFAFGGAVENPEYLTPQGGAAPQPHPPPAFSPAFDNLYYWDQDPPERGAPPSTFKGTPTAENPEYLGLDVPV

[3] = tested on: A549 (human lung cancer cell lines); assay: Growth inhibition test in tumor cells (CCK8), A549; format: cell-based; details: 72 h
[4] = tested on: HCC 827 (human non-small cell lung cancer cell line); assay: Growth inhibition test in tumor cells (CCK8), HCC827; format: cell-based; details: HCC 827 cells, 72 h
[5] = tested on: MDA-MB-453 (human breast cancer cell lines); assay: Growth inhibition test in tumor cells (CCK8), MDA-MB-453; format: cell-based; details: MDA-MB-453 cells, 72 h
Experimental: Growth Inhibition Tests of a Series of Compounds in Different Tumor Cells
i. Cell lines: A431 (human epithelial carcinoma cell lines), A549 (human lung cancer cell lines), NCI H1975 (human non-small cell lung cancer cell lines (HCC), HCC 827 (human non-small cell lung cancer cell line), MDA-MB-453 (human breast cancer cell lines)
MDA-MB-453 cell line: 90% L15+10% FBS; trypsin (a 0.25% (W/V) solution was prepared with […], 0.53 mM EDTA was added);
i) Logarithmic growth phase cells were collected and counted, the cells were suspended again with complete medium,
ii) The cell concentration was adjusted to an appropriate concentration, inoculated to 96 holes, each of which with 100 μL cells suspension.
iii) The cells were incubated in a 37° C., 100% relative humidity and 5% CO2 incubator, for 24 h.
i) Logarithmic growth phase cells were collected and counted, the cells were suspended again with complete medium, the cell concentration was adjusted to an appropriate concentration (determined according to the results of cell density optimization test), inoculated to 96 plates, each of which with […] cells suspension. The cells were incubated in a 37° C., 100% relative humidity and 5% CO2 incubator for 24 h.
ii) The test compounds were diluted to the corresponding concentration stated by culture medium, and the cells were inoculated as 25 μL/hole. The final concentration of the compound was from 10 μM to 0 μM, with a gradient of 4 times, and 10 concentration points totally.
iii) The cells were incubated in a 37° C., 100% relative humidity, 5% CO2 incubator for 72 h.
iv) Absorbing the culture medium, the complete medium containing 10% CCK-8 was added and incubated in the incubator of 37° C. for 2-4 h.
v) After a slight shake, the absorbance at 450 nm was measured by SpectraMax M5 Microplate Reader, taking the absorbance at 650 nm as a reference, the inhibition rate was calculated.
The IC50 curve fitting was performed by using the software Graphpad Prism 5 and the calculation formula log (inhibitor) vs. response to calculate the IC50 value.

EGFR tyrosine kinase = EGFR tyrosine kinase (Homo sapiens (Human), UniProt P00533); assay: HTRF kinEASE TK in vitro kinase assay, EGFR; format: biochemical; details: 30 min enzyme reaction, read-out: IC50 against EGFR
EGFR tyrosine kinase, sequence (P00533 25-1210): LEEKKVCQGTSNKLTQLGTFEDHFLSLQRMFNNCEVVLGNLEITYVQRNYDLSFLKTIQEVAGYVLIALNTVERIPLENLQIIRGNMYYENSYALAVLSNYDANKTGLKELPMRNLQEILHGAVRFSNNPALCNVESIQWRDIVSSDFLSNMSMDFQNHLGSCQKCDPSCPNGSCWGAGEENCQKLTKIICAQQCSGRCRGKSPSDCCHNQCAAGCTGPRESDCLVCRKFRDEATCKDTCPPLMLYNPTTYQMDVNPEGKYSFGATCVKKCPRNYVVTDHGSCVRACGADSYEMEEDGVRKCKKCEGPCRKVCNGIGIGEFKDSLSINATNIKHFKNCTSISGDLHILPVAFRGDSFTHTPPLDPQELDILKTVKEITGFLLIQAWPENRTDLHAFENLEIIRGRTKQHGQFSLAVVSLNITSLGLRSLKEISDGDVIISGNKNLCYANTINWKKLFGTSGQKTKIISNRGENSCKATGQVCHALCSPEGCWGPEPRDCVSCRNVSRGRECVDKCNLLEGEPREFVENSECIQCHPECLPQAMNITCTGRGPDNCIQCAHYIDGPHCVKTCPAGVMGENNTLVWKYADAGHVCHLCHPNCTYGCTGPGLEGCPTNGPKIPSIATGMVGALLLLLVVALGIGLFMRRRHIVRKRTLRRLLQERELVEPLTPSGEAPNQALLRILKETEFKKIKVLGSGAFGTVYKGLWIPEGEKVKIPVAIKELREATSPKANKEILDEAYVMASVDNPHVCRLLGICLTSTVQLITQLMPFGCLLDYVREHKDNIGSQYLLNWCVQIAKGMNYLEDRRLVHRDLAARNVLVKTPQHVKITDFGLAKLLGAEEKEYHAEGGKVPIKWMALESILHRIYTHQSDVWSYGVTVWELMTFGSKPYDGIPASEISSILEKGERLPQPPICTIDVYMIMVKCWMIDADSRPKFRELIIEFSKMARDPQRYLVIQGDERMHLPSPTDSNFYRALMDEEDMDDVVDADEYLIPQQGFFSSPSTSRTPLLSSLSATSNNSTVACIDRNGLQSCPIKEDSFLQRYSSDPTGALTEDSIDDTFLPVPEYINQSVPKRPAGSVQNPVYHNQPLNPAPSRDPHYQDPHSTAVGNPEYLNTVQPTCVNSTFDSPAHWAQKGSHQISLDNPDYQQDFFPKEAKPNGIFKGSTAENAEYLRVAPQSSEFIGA

[6] = tested on: NCI-H1975 nude mice transplanted tumor; assay: In vivo pharmacodynamics evaluation, NCI-H1975 nude mice transplanted tumor; parameters: species or system BALB/c nude mice; details: gavage
Experimental: BALB/c nude mice, female, 6 to 7 weeks of age, weight 20 g±2 g, purchased from Shanghai silaike experimental animal Co. Ltd., SPF environment.
The logarithmic growth phase NCI-H1975 cells cultured in vitro were digested with trypsin, washed with PBS for three times, the cell survival rate was detected by trypan blue exclusion to be >90%, the cell concentration was adjusted to 1×10^7/mL with PBS, which was implanted subcutaneously in back forelimb of the nude mice with 0.2 mL/pcs under aseptic condition. After tumor formation, the tumor were cultured for two passages in vivo, the tumor were stripped out to sterile culture plate when growing to the volume of 300 to 500 mm^3, a small amount of PBS was added, the tumor tissue with vigorous growth were cut into about 1.5 mm^3 tumor blocks, inoculated in right armpit of the nude mice. The diameter of tumor was measured with vernier caliper, when the tumor grew to 100 to 200 mm^3, then the animal were randomly grouping, […], gavage administration, once a day or every other day, continuously administrated for 14 days (d14) and observed for 7 days (d22), the negative control group was administrated with the same amount of solvent (saline solution of 1% DMSO), during the period of administration and recovery, the body weight and tumor size of the nude mice were measured weekly 2 to 3 times. The tumor volume and relative tumor volume were calculated according to the measured data, and the calculation formula of the tumor volume (TV) was TV=1/2×a×b^2, of which a and b represent the tumor length and diameter respectively. The relative tumor volume (RTV) was calculated according to the measured results, and the calculation formula was: RTV=Vt/V0, wherein V0 represents the tumor volume at the beginning of the experiment, Vt represents the volume of the tumor each measured.

| IC50 [2] | IC50 (Her-2 enzyme) | IC50 [3] | IC50 [4] | IC50 [5] | IC50 (EGFR tyrosine kinase) | SMILES | IC50 [1] | Inhibition rate (%) d22 ([6]; 5 mg/kg (low dosage), qod) | RTV d22 ([6]; 5 mg/kg, qod) | T/C (%) d22 ([6]; 5 mg/kg, qod) | Inhibition rate (%) d22 ([6]; 20 mg/kg (middle dosage), qod) | RTV d22 ([6]; 20 mg/kg, qod) | T/C (%) d22 ([6]; 20 mg/kg, qod) | Inhibition rate (%) d22 ([6]; 80 mg/kg (high dosage), qod) | RTV d22 ([6]; 80 mg/kg, qod) | T/C (%) d22 ([6]; 80 mg/kg, qod) | Inhibition rate (%) d22 ([6]; 5 mg/kg, qd) | RTV d22 ([6]; 5 mg/kg, qd) | T/C (%) d22 ([6]; 5 mg/kg, qd) |
| --- | --- | --- | --- | --- | --- | --- | --- | --- | --- | --- | --- | --- | --- | --- | --- | --- | --- | --- | --- |
| 6.01 nM | 3.63 nM | 1440 nM | 0.587 nM | 1.43 nM | 0.771 nM | C#Cc1cccc(Nc2ncnc3cc(OCCOCC)c(NC(=O)/C=C/CN(C)C)cc23)c1 [Embodiment 10, (E)-N-(7-(2-ethoxyethoxy)-4-(3-ethynylphenylamino)quinazolin-6-yl)-4-(dimethylamino)but-2-enamide] | 45.5 nM | – | – | – | – | – | – | – | – | – | – | – | – |
| 5.87 nM | 83.8 nM | 1840 nM | 0.55 nM | – | 1.54 nM | CC(C)OCCOc1cc2ncnc(Nc3ccc(F)c(Cl)c3)c2cc1NC(=O)/C=C/CN(C)C [Embodiment 6, (E)-N-(4-(3-chloro-4-fluorophenylamino)-7-(2-isopropoxyethoxy)quinazolin-6-yl)-4-(dimethylamino)but-2-enamide] | – | – | – | – | – | – | – | – | – | – | – | – | – |
| – | 53.9 nM | – | – | – | 10.2 nM | CCOCCOc1cc2ncnc(Nc3ccc(OCc4ccccn4)c(Cl)c3)c2cc1NC(=O)/C=C/CN(C)C [Embodiment 12, (E)-N-(4-(3-chloro-4-(pyridin-2-ylmethoxy)phenylamino)-7-(2-ethoxyethoxy)quinazolin-6-yl)-4-(dimethylamino)but-2-enamide] | – | – | – | – | 78.7** % | 1.59 ± 0.33 | 21.41% | 90.5*** % | 0.70 ± 0.09 | 9.34% | 66.1** % | 2.47 ± 0.68 | 33.21% |

The remaining lines, values behind:

| SMILES | IC50 [2] | IC50 (Her-2 enzyme) | IC50 [3] | IC50 [4] | IC50 [5] | IC50 (EGFR tyrosine kinase) | IC50 [1] | Inhibition rate (%) d22 ([6]; 5 mg/kg (low dosage), qod) | RTV d22 ([6]; 5 mg/kg, qod) | T/C (%) d22 ([6]; 5 mg/kg, qod) | Inhibition rate (%) d22 ([6]; 20 mg/kg (middle dosage), qod) | RTV d22 ([6]; 20 mg/kg, qod) | T/C (%) d22 ([6]; 20 mg/kg, qod) | Inhibition rate (%) d22 ([6]; 80 mg/kg (high dosage), qod) | RTV d22 ([6]; 80 mg/kg, qod) | T/C (%) d22 ([6]; 80 mg/kg, qod) | Inhibition rate (%) d22 ([6]; 5 mg/kg, qd) | RTV d22 ([6]; 5 mg/kg, qd) | T/C (%) d22 ([6]; 5 mg/kg, qd) |
| --- | --- | --- | --- | --- | --- | --- | --- | --- | --- | --- | --- | --- | --- | --- | --- | --- | --- | --- | --- |
| CCOCCOc1cc2ncnc(Nc3ccc(F)c(Cl)c3)c2cc1NC(=O)/C=C/CN(C)C [Embodiment 4, (E)-N-(4-(3-chloro-4-fluorophenylamino)-7-(2-ethoxyethoxy)quinazolin-6-yl)-4-(dimethylamino)but-2-enamide] | 1.53 nM | 42.1 nM | 7520 nM | 0.312 nM | 0.62 nM | 0.699 nM | – | 73.2** % | 2.00 ± 0.29 | 26.91% | 82.0** % | 1.39 ± 0.40 | 18.71% | 95.1*** % | 0.43 ± 0.05 | 5.75% | – | – | – |
| CCCOCCOc1cc2ncnc(Nc3ccc(F)c(Cl)c3)c2cc1NC(=O)/C=C/CN(C)C [Embodiment 5, (E)-N-(4-(3-chloro-4-fluorophenylamino)-7-(2-propoxyethoxy)quinazolin-6-yl)-4-(dimethylamino)but-2-enamide] | 8.15 nM | 132 nM | 3140 nM | 0.555 nM | – | 2.85 nM | – | – | – | – | – | – | – | – | – | – | – | – | – |
| COC[C@@H](C)Oc1cc2ncnc(Nc3ccc(F)c(Cl)c3)c2cc1NC(=O)/C=C/CN(C)C [Embodiment 2, (R,E)-N-(4-(3-chloro-4-fluorophenylamino)-7-(2-methoxy-1-methylethoxy)quinazolin-6-yl)-4-(dimethylamino)but-2-enamide] | 43 nM | 148 nM | 7560 nM | – | – | – | 49.9 nM | – | – | – | – | – | – | – | – | – | – | – | – |
| COCCCOc1cc2ncnc(Nc3ccc(F)c(Cl)c3)c2cc1NC(=O)/C=C/CN(C)C [Embodiment 1, (E)-N-(4-(3-chloro-4-fluorophenylamino)-7-(3-methoxypropoxy)quinazolin-6-yl)-4-(dimethylamino)but-2-enamide] | – | 39.3 nM | 6080 nM | 0.293 nM | – | 0.765 nM | – | – | – | – | – | – | – | – | – | – | – | – | – |
